According to patent publication US6407116B1, “Nitrogenous fused-ring compounds, process for the preparation of the same, and drugs” (Takeda Chemical Industries, Inc., priority 1997, dated 2002):
Structures can show the parent of a compound that is named as a salt.

What was measured:
guinea-pig eosinophils = assay: Chemotaxis inhibition assay: LTB4-induced chemotaxis in guinea-pig eosinophils; type: cell-based; conditions: test substance 1×10^−5 M, LTB4 10^−8 M, 2 hours; for inhibition at 10 µM: Cavia porcellus, Eosinophil
Procedure: 1) Guinea-pig Eosinophil Preparation
Male Hartley guinea-pigs received 2 ml of equine serum (Bio-Whittaker, Inc) intraperitoneally once a week for successive 8 weeks. 48 hours after the last administration, 75 ml of physiological saline was injected into the peritoneal cavity, and the fluid was recovered and centrifuged at 400 G for 5 minutes. […] Erythrocytes in the isolated cell pellet, if any, were removed by hypotonic treatment (suspended in water for 30 seconds).
2) Chemotaxis Inhibition Assay
600 μl of LTB4 suspended in Hanks-Hepes-HSA (final concentration of 10^−8 M, Cascade Biochemical Ltd.) was placed in the lower compartment of a 24-well plate and kept at 37° C. for 30 minutes in a CO2 gas incubator. After mounting a Chemotaxicell (polycarbonate membrane, pore size 3 μm, thickness 10 μm), which served as an upper compartment, on the 24-well plate described above, 200 μl of eosinophil suspension (5×10^6 cells/ml), which had been incubated at 37° C. for 15 minutes in a thermostat chamber, was added to the upper compartment. After allowing to react for 2 hours in the CO2 gas incubator, the Chemotaxicell was removed, and 60 μl of 2% (w/v) EDTA solution in physiological saline was added to the lower compartment. After cooling on ice, the cells which underwent the chemotaxis into the lower compartment were counted using a blood cell counter (Coulter Counter (trade name)). In the procedure described above, the test substance was dissolved in N,N-dimethylformamide (DMF) and added to the upper and lower compartments at the final concentration of 10^−5 M.
% Chemotaxis inhibition=[…] [Equation 2]
The results are shown in [Table 2].

[1] = test system: histamine-induced dermal vascular hyperpermeability; assay: Effect on histamine-induced dermal vascular hyperpermeability in guinea pigs; type: in vivo, guinea pig; conditions: 3 mg/kg oral administration, 1 hour before intradermal histamine, male Hartley guinea pigs; for inhibition in vivo at 3 mg/kg: Cavia porcellus
Procedure: Effect on Histamine-induced Dermal Vascular Hyperpermeability in Guinea Pigs
Male Hartley guinea pigs (weighing about 500 g) were used. […] After 30 minutes, the animal was hit on its head to make it unconscious, and cut at its neck to sacrifice by exsanguination. The dorsal skin was peeled and examined for the long and short diameters (mm) of each blue spot which were then multiplied to give a product, which was averaged to give a vascular permeability index. Each substance was suspended in 5% gum arabic solution, and given orally in the volume of 0.2 ml/100 g body weight 1 hour before histamine administration. Control animals received the same volume of 5% gum arabic solution. A % inhibition of this reaction was calculated according to [Equation 1].
% Inhibition of histamine-induced dermal vascular hyperpermeability=100×(1-vascular permeability index in treatment group/vascular permeability index in control group) [Equation 1]

Row | Molecule | inhibition at 10 µM (guinea-pig eosinophils) | melting point | other results
1 | Cl.O=c1[nH]c(=O)n(CCCN2CCC(OC(c3ccccc3)c3ccccc3)CC2)c2ncccc12 [Example 6, 2,4-Dioxo-1-[3-(4-diphenylmethoxypiperidino)propyl]-1,2,3,4-tetrahydropyrido[2,3-d]pyrimidine hydrochloride] | 67% | 131 to 133 °C | –
2 | O=c1nc2n(CCCCN3CCC(OC(c4ccccc4)c4ccccc4)CC3)ccnc-2c(=O)[nH]1 [Example 8, 2,4-Dioxo-8-[4-(4-diphenylmethoxypiperidino)butyl]-1,2,3,4-tetrahydropteridine] | – | – | Inhibition of histamine-induced dermal vascular hyperpermeability (%) [1]: 92%
3 | O=c1[nH]c(=O)n(CCCCN2CCC(OC(c3ccccc3)c3ccccc3)CC2)c2ccc(Cl)cc12 [Example 10, 6-Chloro-2,4-dioxo-1-[4-(4-diphenylmethoxypiperidino)butyl]-1,2,3,4-tetrahydroquinazoline] | 50% | 209 to 210 °C | –
4 | Cc1ccc2c(c1)c(=O)[nH]c(=O)n2CCCCN1CCC(OC(c2ccccc2)c2ccccc2)CC1 [Example 13, 2,4-Dioxo-1-[4-(4-diphenylmethoxypiperidino)butyl]-6-methyl-1,2,3,4-tetrahydroquinazoline] | 66% | 180 to 182 °C | –
5 | CCOC(=O)CCn1c(=O)c2ccccc2n(CCCCN2CCC(OC(c3ccccc3)c3ccccc3)CC2)c1=O [Example 17, Ethyl 2,4-dioxo-1-[4-(4-diphenylmethoxypiperidino)butyl]-1,2,3,4-tetrahydroquinazoline-3-propionate hydrochloride] | – | – | inhibition in vivo at 3 mg/kg [1]: 91%
6 | CC(C)(C)n1c(=O)c2ccccc2n(CCCCN2CCC(OC(c3ccccc3)c3ccccc3)CC2)c1=O.Cl [Example 22, 3-(1,1-Dimethylethyl)-2,4-dioxo-1-[4-(4-diphenylmethoxypiperidino)butyl]-1,2,3,4-tetrahydroquinazoline hydrochloride] | 72% | 229 to 231 °C | –
7 | COc1ccc(Cn2c(=O)c3ccccc3n(CCCCN3CCC(OC(c4ccccc4)c4ccccc4)CC3)c2=O)cc1 [Example 26, 2,4-Dioxo-1-[4-(4-diphenylmethoxypiperidino)butyl]-3-(4-methoxybenzyl)-1,2,3,4-tetrahydroquinazoline] | 50% | 99 to 100 °C | –
8 | CCOC(=O)C(C)(C)n1c(=O)c2cc(Cl)ccc2n(CCCCN2CCC(OC(c3ccccc3)c3ccccc3)CC2)c1=O [Example 35, Ethyl 2-[6-chloro-1-[4-(4-diphenylmethoxypiperidino)butyl]-2,4-dioxo-1,2,3,4-tetrahydroquinazolin-3-yl]isobutyrate hydrochloride] | – | – | inhibition in vivo at 3 mg/kg [1]: 87%
9 | O=C(O)CCCn1c(=O)c2ccccc2n(CCCCN2CCC(OC(c3ccccc3)c3ccccc3)CC2)c1=O [Example 53, 2,4-Dioxo-1-[4-(4-diphenylmethoxypiperidino)butyl]-1,2,3,4-tetrahydroquinazoline-3-butyric acid] | – | – | inhibition in vivo at 3 mg/kg [1]: 90%
10 | O=c1c2ccccc2n(CCCCN2CCC(OC(c3ccccc3)c3ccccc3)CC2)c(=O)n1CCO [Example 55, 2,4-Dioxo-1-[4-(4-diphenylmethoxypiperidino)butyl]-3-(2-hydroxyethyl)-1,2,3,4-tetrahydroquinazoline] | 64% | 145 to 150 °C | –
11 | O=c1c2ccccc2n(CCCCN2CCC(OC(c3ccccc3)c3ccccc3)CC2)c(=O)n1CCCc1ccccc1 [Example 58, 2,4-Dioxo-1-[4-(4-diphenylmethoxypiperidino)butyl]-3-(3-phenylpropyl)-1,2,3,4-tetrahydroquinazoline hydrochloride] | 84% | – | –
12 | COC(=O)COC(=O)Cn1c(=O)c2ccccc2n(CCCCN2CCC(OC(c3ccccc3)c3ccccc3)CC2)c1=O [Example 69, Methoxycarbonylmethyl 2,4-dioxo-1-[4-(4-diphenylmethoxypiperidino)butyl]-1,2,3,4-tetrahydroquinazoline-3-acetate hydrochloride] | 96% | – | –
13 | COC(=O)Cc1ccc2c(c1)c(=O)[nH]c(=O)n2CCCCN1CCC(OC(c2ccccc2)c2ccccc2)CC1 [Example 86, Methyl 2,4-dioxo-1-[4-(4-diphenylmethoxypiperidino)butyl]-1,2,3,4-tetrahydroquinazoline-6-acetate] | 55% | – | –
14 | COC(=O)C1(n2c(=O)c3ccccc3n(CCCCN3CCC(OC(c4ccccc4)c4ccccc4)CC3)c2=O)CCCCC1 [Example 97, Methyl 1-[2,4-dioxo-1-[4-(4-diphenylmethoxypiperidino)butyl]-1,2,3,4-tetrahydroquinazolin-3-yl]-1-cyclohexylcarboxylate hydrochloride] | 62% | – | –
15 | O=C(O)CCCCCn1c(=O)c2ccccc2n(CCCCN2CCC(OC(c3ccccc3)c3ccccc3)CC2)c1=O [Example 98, 2,4-Dioxo-1-[4-(4-diphenylmethoxypiperidino)butyl]-1,2,3,4-tetrahydroquinazoline-3-hexanoic acid] | 50% | 155 to 157 °C | –
16 | O=C(O)CCCCn1c(=O)c2cc(F)ccc2n(CCCCN2CCC(OC(c3ccccc3)c3ccccc3)CC2)c1=O [Example 101, 2,4-Dioxo-1-[4-(4-diphenylmethoxypiperidino)butyl]-6-fluoro-1,2,3,4-tetrahydroquinazoline-3-valeric acid] | 50% | – | –
17 | COC(=O)CNC(=O)Cn1c(=O)c2ccccc2n(CCCCN2CCC(OC(c3ccccc3)c3ccccc3)CC2)c1=O [Example 109, 2,4-Dioxo-1-[4-(4-diphenylmethoxypiperidino)butyl]-N-methoxycarbonylmethyl-1,2,3,4-tetrahydroquinazoline-3-acetamide hydrochloride] | 55% | – | –
18 | CCOC(=O)CN(C)C(=O)Cn1c(=O)c2ccccc2n(CCCCN2CCC(OC(c3ccccc3)c3ccccc3)CC2)c1=O.Cl [Example 110, 2,4-Dioxo-1-[4-(4-diphenylmethoxypiperidino)butyl]-N-ethoxycarbonylmethyl-N-methyl-1,2,3,4-tetrahydroquinazoline-3-acetamide hydrochloride] | 122% | 170 to 172 °C | –
19 | CCOC(=O)CCNC(=O)Cn1c(=O)c2ccccc2n(CCCCN2CCC(OC(c3ccccc3)c3ccccc3)CC2)c1=O.Cl [Example 111, 2,4-Dioxo-1-[4-(4-diphenylmethoxypiperidino)butyl]-N-(2-ethoxycarbonylethyl)-1,2,3,4-tetrahydroquinazoline-3-acetamide hydrochloride] | 80% | 123 to 124 °C | –
20 | CN(CC(=O)O)C(=O)Cn1c(=O)c2ccccc2n(CCCCN2CCC(OC(c3ccccc3)c3ccccc3)CC2)c1=O [Example 114, N-Carboxylmethyl-2,4-dioxo-1-[4-(4-diphenylmethoxypiperidino)butyl]-N-methyl-1,2,3,4-tetrahydroquinazoline-3-acetamide] | 54% | – | –
21 | O=C(O)CNC(=O)CCn1c(=O)c2ccccc2n(CCCCN2CCC(OC(c3ccccc3)c3ccccc3)CC2)c1=O [Example 116, N-Carboxylmethyl-2,4-dioxo-1-[4-(4-diphenylmethoxypiperidino)butyl]-1,2,3,4-tetrahydroquinazoline-3-propionamide hydrochloride] | 52% | – | –
22 | N-(2-Carboxylethyl)-carboxylmethyl-2,4-dioxo-1-[4-(4-diphenylmethoxypiperidino)butyl]-N-methyl-1,2,3,4-tetrahydroquinazoline-3-acetamide [Example 115] | – | – | Inhibition (%) of LTB4-induced chemotaxis (guinea-pig eosinophils): 56%
